In patent publication US7091183B1 (Boston Medical Center Corporation, priority 1996, dated 2006):
“And” between values parts separate entries of the source, which are not always exact repeats. Identical values can stand only once. Like-named read-outs stand apart in the source and are kept apart here. Values belong to the compound of their own block, whether it stands above or below them. Where no end group is shown, it is not given here.

Experiments:
rat GIP receptor [1] = biological target: T1, rat GIP receptor (Rattus norvegicus, UniProt P43219); assay: cAMP-dependent β-galactosidase production in LGIPR2 cells (agonist activity); assay type: cell-based; conditions: for β-gal level stimulated by peptide alone: FIG. 1B; for stimulation of cAMP-dependent β-galactosidase production (versus GIP (1–42) / above control levels): 10^−8 M peptide, 4 h
T1 construct: expressed in transfected cells; host or cells: L cells (LGIPR2), also carrying a VIP-promoter/lacZ cAMP reporter
T1 sequence (P43219 19-455): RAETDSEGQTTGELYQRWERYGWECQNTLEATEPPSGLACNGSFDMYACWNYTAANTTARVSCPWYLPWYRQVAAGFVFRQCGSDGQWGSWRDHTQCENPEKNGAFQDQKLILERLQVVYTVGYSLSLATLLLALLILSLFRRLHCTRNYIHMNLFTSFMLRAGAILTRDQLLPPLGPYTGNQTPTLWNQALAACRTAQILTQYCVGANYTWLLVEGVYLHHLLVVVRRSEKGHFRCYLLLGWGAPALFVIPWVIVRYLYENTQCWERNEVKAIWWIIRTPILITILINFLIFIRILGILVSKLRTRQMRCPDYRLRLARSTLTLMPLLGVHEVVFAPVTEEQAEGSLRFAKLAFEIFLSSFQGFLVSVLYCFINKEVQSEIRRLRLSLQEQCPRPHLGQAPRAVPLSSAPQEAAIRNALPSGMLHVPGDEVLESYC
Source text: LGIPR2 cells are stably transfected with a cAMP-dependent promoter from the VIP gene fused to the bacterial lac Z gene. When intracellular cAMP increases within these cells, lac Z gene transcription is activated, resulting in the accumulation of its product, β-galactosidase. The measurement of β-galactosidase in this system provided a convenient, inexpensive, and nonradioactive method for detecting changes in the levels of intracellular cAMP. […] The medium was then removed and wells rinsed once with phosphate-buffered saline (PBS). The plates were then blotted briefly and frozen overnight at −70° C., and, after the addition of chlorophenol red-β-D-galactopyranoside, accumulated β-galactosidase was detected using a calorimetric assay, as described previously (Usdin, et al., 1993, Endocrinology, 133:2861–2870). […] Natl. Acad. Sci. USA, 90:1992–1996).

fasted anesthetized rats = assay: Intravenous infusion of peptides in fasting anesthetized rats, plasma insulin; assay type: in vivo, rat; conditions: for plasma insulin level after infusion: 30 min i.v. infusion
rats = conditions: exendin-treated rats, cited from earlier work
[2] = in vivo; cited from earlier work
GIP receptor [3] = conditions: cited from earlier work
GIP receptor [4] = biological target: T2, GIP receptor (Mus musculus, UniProt Q0P543); conditions: βTC3 cells; cited from earlier work
T2 construct: host or cells: βTC3 cells (endogenous receptor)
T2 sequence (Q0P543 19-460): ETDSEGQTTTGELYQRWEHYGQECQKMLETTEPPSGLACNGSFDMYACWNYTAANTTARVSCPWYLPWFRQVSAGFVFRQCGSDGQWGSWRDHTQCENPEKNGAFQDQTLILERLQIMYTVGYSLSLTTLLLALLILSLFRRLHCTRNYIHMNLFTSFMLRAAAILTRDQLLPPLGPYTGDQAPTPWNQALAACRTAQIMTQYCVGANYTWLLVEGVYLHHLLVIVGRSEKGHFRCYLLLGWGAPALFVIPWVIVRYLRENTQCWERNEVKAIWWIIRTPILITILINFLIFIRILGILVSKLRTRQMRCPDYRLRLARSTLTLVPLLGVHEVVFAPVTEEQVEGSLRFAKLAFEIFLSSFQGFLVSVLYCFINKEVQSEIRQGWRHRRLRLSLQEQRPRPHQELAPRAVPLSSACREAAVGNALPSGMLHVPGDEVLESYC

rat GIP receptor [5] = biological target: T1, rat GIP receptor; assay: Inhibition of GIP (1–42)-stimulated cAMP-dependent β-galactosidase production in LGIPR2 cells; assay type: cell-based; conditions: 10^−8 M GIP (1–42) plus fragment at 10^−8 M or 10^−6 M, 4 h
Method: LGIPR2 cells are stably transfected with a cAMP-dependent promoter from the VIP gene fused to the bacterial lac Z gene. When intracellular cAMP increases within these cells, lac Z gene transcription is activated, resulting in the accumulation of its product, β-galactosidase. The measurement of β-galactosidase in this system provided a convenient, inexpensive, and nonradioactive method for detecting changes in the levels of intracellular cAMP.
LGIPR2 cells were grown in Dulbecco's Modified Eagle's Medium (DMEM) containing 4.5 g/L of glucose and 10% fetal calf serum. For each assay, 10^5 cells/well were seeded onto 24-well plates. After incubation overnight, peptides were added in various concentrations to the wells in the absence of 3-isobutyl-methylxanthine (IBMX) for 4 h, at which time maximal stimulation of β-galactosidase was determined. The medium was then removed and wells rinsed once with phosphate-buffered saline (PBS). The plates were then blotted briefly and frozen overnight at −70° C., and, after the addition of chlorophenol red-β-D-galactopyranoside, accumulated β-galactosidase was detected using a calorimetric assay, as described previously (Usdin, et al., 1993, Endocrinology, 133:2861–2870).
Values are expressed as the mean±SE of quadruplicate measurements.

Compound: CC[C@H](C)[C@H](NC(=O)[C@H](CO)NC(=O)[C@H](Cc1ccc(O)cc1)NC(=O)[C@H](CC(=O)O)NC(=O)[C@H](CO)NC(=O)[C@@H](NC(=O)[C@H](Cc1ccccc1)NC(=O)[C@@H](NC(=O)CNC(=O)[C@H](CCC(=O)O)NC(=O)[C@H](C)NC(=O)[C@@H](N)Cc1ccc(O)cc1)[C@@H](C)O)[C@@H](C)CC)C(=O)N[C@@H](C)C(=O)N[C@@H](CCSC)C(=O)N[C@@H](CC(=O)O)C(=O)N[C@@H](CCCCN)C(=O)N[C@H](C(=O)N[C@@H](CCCNC(=N)N)C(=O)N[C@@H](CCC(N)=O)C(=O)N[C@@H](CCC(N)=O)C(=O)N[C@@H](CC(=O)O)C(=O)N[C@@H](Cc1ccccc1)C(=O)N[C@H](C(=O)N[C@@H](CC(N)=O)C(=O)N[C@@H](Cc1c[nH]c2ccccc12)C(=O)N[C@@H](CC(C)C)C(=O)N[C@@H](CC(C)C)C(=O)N[C@@H](C)C(=O)N[C@@H](CCC(N)=O)C(=O)N[C@@H](CCCCN)C(=O)NCC(=O)N[C@@H](CCCCN)C(=O)N[C@@H](CCCCN)C(=O)N[C@@H](CC(N)=O)C(=O)N[C@@H](CC(=O)O)C(=O)N[C@@H](Cc1c[nH]c2ccccc12)C(=O)N[C@@H](CCCCN)C(=O)N[C@@H](Cc1c[nH]cn1)C(=O)N[C@@H](CC(N)=O)C(=O)N[C@@H](CC(C)C)C(=O)N[C@H](C(=O)N[C@@H](CCC(N)=O)C(=O)O)[C@@H](C)O)C(C)C)[C@@H](C)CC [GIP, glucose-dependent insulinotropic polypeptide]
β-gal level stimulated by peptide alone (rat GIP receptor [1]): 0.95±0.04 O.D.
concentration giving maximum effect on β-galactosidase production (rat GIP receptor [1]; at 4 h): 10^−8 M
plasma insulin level after infusion (fasted anesthetized rats; GIP 0.5 nmol/kg): 43.5±2.7 μIU/ml
plasma insulin level after infusion (fasted anesthetized rats; GIP 1.0 nmol/kg): 61.6±4.2 μIU/ml
plasma insulin level after infusion (fasted anesthetized rats; GIP 1.5 nmol/kg): 72.4±3.5 μIU/ml

Compound: exendin (9–39)
plasma glucose level (rats; increased from 7.5): 8.7 mmol/L
reduction of postprandial insulin release (rats): 50% and 48%
reduction of postprandial insulin release (rats; listed as exendin): ~50%
reduction of insulin release following intraduodenal glucose infusion [2]: 70%
GIP binding to its receptor (GIP receptor [3]): displaced GIP binding from its receptor
cAMP generation in response to GIP stimulation (GIP receptor [3]): inhibits cAMP generation

Compound: CC[C@H](C)[C@H](NC(=O)[C@H](Cc1ccccc1)NC(=O)[C@H](CCC(=O)O)NC(=O)[C@H](CCCCN)NC(=O)[C@H](C)NC(=O)[C@H](C)NC(=O)[C@H](CCC(N)=O)NC(=O)CNC(=O)[C@H](CCC(=O)O)NC(=O)[C@H](CC(C)C)NC(=O)[C@H](Cc1ccc(O)cc1)NC(=O)[C@H](CO)NC(=O)[C@H](CO)NC(=O)[C@@H](NC(=O)[C@H](CC(=O)O)NC(=O)[C@H](CO)NC(=O)[C@@H](NC(=O)[C@H](Cc1ccccc1)NC(=O)[C@@H](NC(=O)CNC(=O)[C@H](CCC(=O)O)NC(=O)[C@H](C)NC(=O)[C@@H](N)Cc1c[nH]cn1)[C@@H](C)O)[C@@H](C)O)C(C)C)C(=O)N[C@@H](C)C(=O)N[C@@H](Cc1c[nH]c2ccccc12)C(=O)N[C@@H](CC(C)C)C(=O)N[C@H](C(=O)N[C@@H](CCCCN)C(=O)NCC(=O)N[C@@H](CCCNC(=N)N)C(N)=O)C(C)C [GLP-1, glucagon like peptide-1 (7–36)]
plasma insulin level at 30 min (fasted anesthetized rats; GLP-1 0.4 nmol/kg infusion): 50.3±3.7 μIU/ml

Compound: N=C(N)NCCC[C@H](N)C(=O)O [arginine]
plasma insulin level at 30 min (fasted anesthetized rats; arginine 375 mg/kg infusion): 69.7±5.8 μIU/ml

Further lines, with some results ahead:

stimulation of cAMP-dependent β-galactosidase production (versus GIP (1–42) / above control levels) (rat GIP receptor [1]): none
Compound: GIP (21–30)-NH2 (DFVNWLLAQK-NH2)

stimulation of cAMP-dependent β-galactosidase production (versus GIP (1–42) / above control levels) (rat GIP receptor [1]): nearly equipotent
Compound: GIP (1–30)-NH2 (YAEGTFISDYSIAMDKIRQQDFVNWLLAQK-NH2; listed as Rattus norvegicus)
binding of GIP (1–42) to the GIP receptor (GIP receptor [4]): competitively inhibited binding

stimulation of cAMP-dependent β-galactosidase production (versus GIP (1–42) / above control levels) (rat GIP receptor [1]): did not mimic GIP and none
Compound: GIP (16–30)-NH2 (KIRQQDFVNWLLAQK-NH2; listed as Rattus norvegicus)
antagonism of the cAMP stimulatory effect of GIP (1–42) (rat GIP receptor [5]): neither did they inhibit GIP-dependent effects

stimulation of cAMP-dependent β-galactosidase production (versus GIP (1–42) / above control levels) (rat GIP receptor [1]): none
Compound: GIP (31–44) (GKKNDWKHNLTQRE; listed as Rattus norvegicus)

stimulation of cAMP-dependent β-galactosidase production (versus GIP (1–42) / above control levels) (rat GIP receptor [1]): partial agonist activity
β-gal level stimulated by peptide alone (rat GIP receptor [1]): 0.39 O.D.
antagonism of the cAMP stimulatory effect of GIP (1–42) (rat GIP receptor [5]): an antagonist, albeit a weak one
Compound: GIP (10–30)-NH2 (YSIAMDKIRQQDFVNWLLAQK-NH2; listed as Rattus norvegicus)
